From the supplement of paper PMC11821682

Experiments:
[1] = system: HL-60; assay: Cell Health Index (toxicity pseudo-probability over dose series) (index 0-1); higher = more cytotoxic / cell stress;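 note: HL-60 cells exposed 4 h at 37 °C to ten threefold dilutions spanning 5 nM to 100 µM, multiparametric flow cytometry features scored by machine-learning classification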
[2] = system: Danio rerio embryo; assay: BMC10 any morphological effect or mortality at 120 hpf; higher = less toxic

| Structure (SMILES) | Cell Health Index [1] | BMC10 any morphological effect or mortality [2] [µM] |
| --- | --- | --- |
| Cc1nnc(C(C)C)n1[C@@H]1C[C@H]2CC[C@@H](C1)N2CC[C@H](NC(=O)C1CCC(F)(F)CC1)c1ccccc1 [Maraviroc] | 0.155 | > 100 |
| COc1cc(NC(=O)Nc2cccc(CNC(=O)O[C@H]3CCOC3)c2)ccc1-c1cnco1 [Merimepodib] | 0.67 | > 100 |
| COC(=O)c1cc(O)c(O)c(O)c1 [Methyl gallate] | 0.351 | > 100 |
| CCCCN1C[C@H](O)[C@@H](O)[C@H](O)[C@H]1CO.Cl [Miglustat] | 0.184 | > 100 |
| NC(=O)c1ncn([C@@H]2O[C@H](CO)[C@@H](O)[C@H]2O)c1O [Mizoribine] | 0.202 | > 100 |
| Cl.N=C(N)NC(=N)N1CCOCC1 [Moroxydine] | 0.19 | > 100 |
| CNc1ncnc2c1ncn2[C@@H]1O[C@H](CO)[C@@H](O)[C@H]1O [N6-Methyladenosine] | 0.307 | > 100 |
| CC(=O)NC1[C@H]([C@H](O)[C@H](O)CO)O[C@@](O[C@H]2[C@@H](O)[C@@H](CO)O[C@@H](O[C@@H]([C@H](O)[C@@H](O)C=O)[C@H](O)CO)[C@@H]2O)(C(=O)[O-])C[C@@H]1O.[Na+] (some centres undefined) [N-Acetylneuraminoyllactose] | 0.235 | > 100 |
| CCCCCCCCCN1C[C@H](O)[C@@H](O)[C@H](O)[C@H]1CO [N-Nonyldeoxynojirimycin] | 0.254 | > 100 |
| CC(=O)N[C@@H](CS)C(=O)O [N-acetyl-L-Cysteine] | 0.143 | > 100 |
| CS(=O)(=O)O.Cc1c(O)cccc1C(=O)N[C@@H](CSc1ccccc1)[C@H](O)CN1C[C@H]2CCCC[C@H]2C[C@H]1C(=O)NC(C)(C)C [Nelfinavir] | 0.453 | > 100 |
| C=C1CC[C@@H]2[C@](C)(CO[C@@H]3O[C@H](CO)[C@@H](O)[C@H](O)[C@H]3O)CCC[C@@]2(C)[C@@H]1CCC1=CCOC1=O [Neoandrographolide] | 0.21 | > 100 |
| Cc1ccnc2c1NC(=O)c1cccnc1N2C1CC1 [Nevirapine] | 0.185 | > 100 |
| CC(=O)O[C@H]1CC(=O)OC(C)(C)[C@@H]2CC(=O)[C@]3(C)[C@H](CC[C@@]4(C)[C@H](c5ccoc5)OC(=O)[C@H]5O[C@]543)[C@@]12C [Nomilin] | 0.278 | > 100 |
| O=c1cc(-c2ccc(O)c(O)c2)oc2c([C@@H]3O[C@H](CO)[C@@H](O)[C@H](O)[C@H]3O)c(O)cc(O)c12 [Orientin] | 0.337 | > 100 |
| CCOC(=O)C1=C[C@@H](OC(CC)CC)[C@H](NC(C)=O)[C@@H](N)C1.O=P(O)(O)O [Oseltamivir] | 0.252 | > 100 |

| Structure (SMILES) | Cell Health Index [1] | BMC10 any morphological effect or mortality [2] [µM] |
| --- | --- | --- |
| O=C1CCC[C@@H]2[C@H]3CCC[N+]4([O-])CCC[C@@H](CN12)[C@@H]34 (some centres undefined) [Oxymatrine] | 0.187 | > 100 |
| Oc1cc(O)cc(/C=C/c2ccc(O)cc2O)c1 [Oxyresveratrol] | 0.673 | > 100 |
| CC(=O)Nc1nc(C)c(-c2ccc(Cl)c(S(=O)(=O)NCCO)c2)s1 [PIK-93] | 0.267 | > 100 |
| CCCn1c(=O)[nH]c2nc(-c3ccc(S(=O)(=O)N4CCN(c5ccc(Cl)cc5)CC4)cc3)[nH]c2c1=O [PSB-603] | 0.489 | > 100 |
| C[C@@]1(F)[C@H](O)[C@@H](CO)O[C@H]1n1ccc(=O)[nH]c1=O [PSI-6206] | 0.116 | > 100 |
| CCCCCCCCCCCCCCCC(=O)NCCO [Palmitoyl ethanolamide] | 0.283 | > 100 |
| Cc1cnc(C(=O)N[C@H]2CCCCC/C=C\[C@@H]3C[C@@]3(C(=O)NS(=O)(=O)C3CC3)NC(=O)[C@@H]3C[C@@H](Oc4nc5ccccc5c5ccccc45)CN3C2=O)cn1 [Paritaprevir] | 0.626 | > 100 |
| C[C@H]1CC[C@@]2(O)C(C)(C)[C@@H]3CC[C@@]2(C)[C@H]1C3 [Patchouli alcohol] | 0.202 | > 100 |
| Nc1nc(=O)c2c(CCc3ccc(C(=O)N[C@@H](CCC(=O)[O-])C(=O)[O-])cc3)c[nH]c2[nH]1.O.O.O.O.O.O.O.[Na+].[Na+] [Pemetrexed] | 0.15 | > 100 |
| Nc1nc(=O)c2ncn(CCC(CO)CO)c2[nH]1 [Penciclovir] | 0.126 | > 100 |
| CC(=O)CCCCn1c(=O)c2c(ncn2C)n(C)c1=O [Pentoxifylline] | 0.147 | > 100 |
| CC(C)CC(=O)N[C@H](C(=O)N[C@H](C(=O)N[C@@H](CC(C)C)[C@@H](O)CC(=O)N[C@@H](C)C(=O)N[C@@H](CC(C)C)[C@@H](O)CC(=O)O)C(C)C)C(C)C [Pepstatin A] | 0.154 | > 100 |
| CCC(CC)[C@H](NC(C)=O)[C@@H]1[C@H](O)[C@@H](C(=O)O)C[C@H]1NC(=N)N [Peramivir] | 0.202 | > 100 |
| CC(C)Cc1ncc(Cc2ccccc2)[nH]c1=O [Pheleuin] | 0.182 | > 100 |
| O=C1NC(=O)C(c2ccccc2)(c2ccccc2)N1 [Phenytoin] | 0.193 | > 100 |
| COC(=O)N[C@H](C(=O)N1CCC[C@H]1c1nc2cc([C@H]3CC[C@H](c4cc5nc([C@@H]6CCCN6C(=O)[C@@H](NC(=O)OC)[C@@H](C)OC)[nH]c5cc4F)N3c3cc(F)c(N4CCC(c5ccc(F)cc5)CC4)c(F)c3)c(F)cc2[nH]1)[C@@H](C)OC [Pibrentasvir] | 0.268 | > 100 |
